Reference: patent publication US20240058335A1, “METHODS FOR TREATMENT OF CANCER USING ABL INHIBITORS AND DRUGS TARGETING THE MEVALONATE PATHWAY” (Duke University, priority 2021, published 2024)

Key:
[1] = test system: PC9, PC9 GR4 and H460 cells; assay: MitoSOX staining, mitochondrial ROS by FACS; assay type: cell-based, human; details: EGFR mutant PC9 and PC9 GR4 cells, IC50 doses, 24 hours
PC9 cells = assay: Pooled metabolically focused CRISPR/Cas9 loss-of-function screen with GNF5 (gene-level three scores); assay type: cell-based, human
Protocol: POOLED CRISPR SCREEN. PC9 cells were seeded into 12, six-well plates at 0.25e6 cells/well. A separate plate was also prepared for no puromycin and puromycin controls of non-transduced cells. Cells were transduced at a MOI of 0.2. 24 hours after viral transduction, cells were replated into puromycin-containing media. A sample was collected at 48 hours of puromycin exposure to confirm library coverage in the transduced population. Transduced cells were expanded in puromycin for a total of 10 days prior to drug introduction, at which point the transduced cell population was split into vehicle (DMSO) and GNF5 treatment conditions and maintained for up to two weeks. Cells were treated with 2 μM GNF5 which corresponded to 20-30% loss in cell viability following a 3-day dose response assay. Cells were counted, replated, and drug replenished every day. At any given point during the screen, each replicate was represented by a minimum of 12E6 cells, sufficient to provide 1000×coverage of the library (1000 cells per unique sgRNA). Samples of 25E6 cells were collected upon screen initiation, termination, and at weekly intervals. Following completion of the screens, DNA was extracted (DNeasy Blood & Tissue Kit, QIAGEN) and prepared for sequencing as previously described.
SCREEN ANALYSIS. Deep sequencing was performed on an Illumina Nextseq platform (75 bp, paired-ended) to identify differences in library composition. All sequencing was performed by the Duke University genome sequencing facility. Barcoded reads were mapped to the guide RNA library using bcSeq to obtain the counts for each guide RNA. Determinations of genetic essentiality and drug sensitization/resistance were made by evaluating differential guide compositions between the initial population and subsequent drug-treated and vehicle-treated cells populations. Briefly, the fractional representation (FR) for the guide reads within a sample was normalized to the total reads attributed to that sample. A direct comparison between two samples was represented by the quotient of the respective FRs in the log 2 scale, which is termed the depletion metric (DM). The guide-level DMs for each gene were then collapsed to gene-level scores by taking the average of the top three most depleted constructs resulting in a biased analysis focused on depleted genes. Genes represented by fewer than 5 guides per condition were excluded from analysis. In the 2,322-gene library, 7 genes (representing 0.3% of the total library) were excluded. Genetic essentiality was calculated by considering the depletion/enrichment of the vehicle-treated (DSMO) population over time (DMSO final/DSMO initial). Drug sensitization/resistance was calculated by considering the depletion/enrichment of the drug-treated population relative to the vehicle-treated population (Drug final/DMSO final). All depletion/enrichment effects are reported as log 2 ratios. All analyses were conducted using the R statistical environment (https://www.r-project.org/) along with extension packages from the comprehensive R archive network (CRAN; available at cran.r-project.org/) and the Bioconductor project. The analyses were carried out with adherence to the principles of reproducible analysis using the knitr package for generation of dynamic reports and gitlab for source code management. The code for replicating the statistical analysis was made accessible through a public source code repository, available at gitlab.oit.duke.edu/dcibioinformatics/pubs/pendergast-crispr-barcode.
Because many metabolic genes are known to be essential to cellular viability, determining the effect of cell-essential genetic loss on apoptosis is difficult. […] The remaining cell-essential genes are captured by the screen.
Metabolically focused CRISPR/Cas9 loss-of-function screen identifies HMGCR inhibition with statin therapy as an apoptotic sensitizer in lung cancer cells. […]

O=C(NCCO)c1cccc(-c2cc(Nc3ccc(OC(F)(F)F)cc3)ncn2)c1 [GNF5]
mitochondrial reactive oxygen species (MitoROS) levels [1]: increased
log2 TS (PC9 cells; CCBL1 knockout): −0.2362
log2 TS (PC9 cells; CCBL2 knockout): −0.00176
log2 TS (PC9 cells; CCDC102B knockout): −0.3186
log2 TS (PC9 cells; CCDC155 knockout): −0.128
log2 TS (PC9 cells; CDA knockout): −0.3678
log2 TS (PC9 cells; CDADC1 knockout): −0.189
log2 TS (PC9 cells; CDC14A knockout): −0.5269
log2 TS (PC9 cells; CDC14B knockout): −0.3312
log2 TS (PC9 cells; CDC25A knockout): −0.3125
log2 TS (PC9 cells; CDC25B knockout): −0.5769
log2 TS (PC9 cells; CDC25C knockout): 0.02041
log2 TS (PC9 cells; CDKN3 knockout): −0.2304
log2 TS (PC9 cells; CDO1 knockout): −0.3626
log2 TS (PC9 cells; CECR1 knockout): 0.1378
log2 TS (PC9 cells; CEL knockout): −0.2626
log2 TS (PC9 cells; CERK knockout): −0.2067
log2 TS (PC9 cells; CERKL knockout): −0.4755
log2 TS (PC9 cells; CERS1 knockout): −0.5675
log2 TS (PC9 cells; CERS2 knockout): −0.1757
log2 TS (PC9 cells; CERS3 knockout): −0.3966
log2 TS (PC9 cells; CERS4 knockout): −0.0552
log2 TS (PC9 cells; CERS5 knockout): −0.09954
log2 TS (PC9 cells; CERS6 knockout): −0.2316
log2 TS (PC9 cells; CES1 knockout): −0.1103
log2 TS (PC9 cells; CES2 knockout): −0.115
log2 TS (PC9 cells; CES3 knockout): −0.1816
log2 TS (PC9 cells; CFTR knockout): −0.552
log2 TS (PC9 cells; CHAT knockout): 0.03889
log2 TS (PC9 cells; CHI3L1 knockout): −0.08904
log2 TS (PC9 cells; CHI3L2 knockout): −0.203
log2 TS (PC9 cells; CHIA knockout): −0.1854
log2 TS (PC9 cells; CHID1 knockout): −0.2305
log2 TS (PC9 cells; CHIT1 knockout): −0.1013
log2 TS (PC9 cells; CHKA knockout): 0.1899
log2 TS (PC9 cells; CHPF knockout): −0.1196
log2 TS (PC9 cells; CHPT1 knockout): 0.05664
log2 TS (PC9 cells; CHRNA1 knockout): −0.2091
log2 TS (PC9 cells; CHRNA2 knockout): −0.09543
log2 TS (PC9 cells; CHRNA3 knockout): 0.193
log2 TS (PC9 cells; CHRNA4 knockout): −0.2119
log2 TS (PC9 cells; CHRNA5 knockout): −0.1927
log2 TS (PC9 cells; CHRNA6 knockout): −0.00193
log2 TS (PC9 cells; CHRNA7 knockout): −0.4166
log2 TS (PC9 cells; CHRNA9 knockout): −0.2542
log2 TS (PC9 cells; CHRNA10 knockout): −0.09517
log2 TS (PC9 cells; CHRNB1 knockout): −0.07599
log2 TS (PC9 cells; CHRNB2 knockout): −0.2245
log2 TS (PC9 cells; CHRNB3 knockout): −0.3189
log2 TS (PC9 cells; CHRNB4 knockout): −0.4141
log2 TS (PC9 cells; CHRND knockout): −0.5686
log2 TS (PC9 cells; CHRNE knockout): −0.137
log2 TS (PC9 cells; CHRNG knockout): 0.05205
log2 TS (PC9 cells; CHST1 knockout): −0.0245
log2 TS (PC9 cells; CHST6 knockout): −0.3091
log2 TS (PC9 cells; CKB knockout): −0.247
log2 TS (PC9 cells; CKM knockout): −0.3126
log2 TS (PC9 cells; CKMT2 knockout): −0.2525
log2 TS (PC9 cells; CLC knockout): −0.314
log2 TS (PC9 cells; CLCA1 knockout): −0.142
log2 TS (PC9 cells; CLCA2 knockout): −0.4614
log2 TS (PC9 cells; CLCA4 knockout): 0.05396
log2 TS (PC9 cells; CLCN1 knockout): −0.1326
log2 TS (PC9 cells; CLCN2 knockout): −0.1747
log2 TS (PC9 cells; CLCN3 knockout): −0.494
log2 TS (PC9 cells; CLCN4 knockout): 0.0428
log2 TS (PC9 cells; CLCN5 knockout): −0.4161
log2 TS (PC9 cells; CLCN6 knockout): −0.3635
log2 TS (PC9 cells; CLCN7 knockout): −0.1319
log2 TS (PC9 cells; CLCNKA knockout): −0.1822
log2 TS (PC9 cells; CLCNKB knockout): −0.3352
log2 TS (PC9 cells; CLIC1 knockout): −0.09123
log2 TS (PC9 cells; CLIC2 knockout): −0.1159
log2 TS (PC9 cells; CLIC3 knockout): 0.07472
log2 TS (PC9 cells; CLIC4 knockout): −0.06827
log2 TS (PC9 cells; CLIC5 knockout): −0.3935
log2 TS (PC9 cells; CLIC6 knockout): −0.02678
log2 TS (PC9 cells; CLYBL knockout): 0.05734
log2 TS (PC9 cells; CMAS knockout): −0.3056
log2 TS (PC9 cells; CMPK1 knockout): −0.1483
log2 TS (PC9 cells; CNDP1 knockout): −0.1314
log2 TS (PC9 cells; CNDP2 knockout): −0.1743
log2 TS (PC9 cells; CNGA1 knockout): −0.1817
log2 TS (PC9 cells; CNGA2 knockout): −0.3543
log2 TS (PC9 cells; CNGA3 knockout): 0.05484
log2 TS (PC9 cells; CNGA4 knockout): −0.3821
log2 TS (PC9 cells; CNGB1 knockout): −0.4165
log2 TS (PC9 cells; CNGB3 knockout): −0.1968
log2 TS (PC9 cells; COA5 knockout): −0.2719
log2 TS (PC9 cells; COASY knockout): 0.06804
log2 TS (PC9 cells; COMT knockout): −0.2352
log2 TS (PC9 cells; COMTD1 knockout): −0.123
log2 TS (PC9 cells; COQ3 knockout): −0.1115
log2 TS (PC9 cells; COQ5 knockout): −0.3619
log2 TS (PC9 cells; COQ6 knockout): −0.1357
log2 TS (PC9 cells; COQ9 knockout): 0.009879
log2 TS (PC9 cells; COX10 knockout): −0.3233
log2 TS (PC9 cells; COX11 knockout): −0.3148
log2 TS (PC9 cells; COX15 knockout): −0.6246
log2 TS (PC9 cells; COX17 knockout): −0.66
log2 TS (PC9 cells; COX20 knockout): −0.2164
